Structures are written as SMILES. pIC50: −log10 of the molar value. A value given as a limit tells only on which side of the number the result lay.

Experiment [1] deals with human peripheral blood mononuclear cells. Kind of experiment: Inhibition of proliferation of PHA-stimulated mononuclear cells (BrdU incorporation). To be noted: PBMC, 1 μg/ml Phytohemagglutinine, 48 hours, test compounds 0.1-250 μM, read-out: MNC IC50. The experiment is classed as cell-based. How it is done: (§1) Peripheral blood mononuclear cells (PBMC) from healthy human volunteers were freshly isolated by density gradient centrifugation. T lymphocytes (T cells, Tc) were isolated from PBMC fractions via nylon wool adherence. Cells were cultured in standard cell culture media and stimulated by addition of 1 μg/ml Phytohemagglutinine for 48 hours in 96 well flat-bottom microtitre plates. Test compounds were added at concentration ranges from 0.1-250 μM over the total assay period.
DNA synthesis of proliferating PBMC was assessed by incorporation of nucleotide analogue bromdesoxyuridine (BrdU) and subsequent detection of optical density (OD) at 450 nm.
(§2) Data output was based on raw data and calculation of relative proliferation response in relation to PHA-activated T cells in the absence of test compound (100% control).
(§3) The […] value of proliferation suppression was assessed by graphical evaluation.

Experiment [2] relates to T lymphocytes. Kind of experiment: Inhibition of proliferation of PHA-stimulated T lymphocytes (tritium thymidine incorporation). Format: cell-based. To be noted: Homo sapiens, T-lymphocyte, 1 μg/ml Phytohemagglutinine, 48 hours, test compounds 0.1-250 μM, read-out: T cells IC50. How it is done:
as §1
DNA synthesis of proliferating T cells was determined by incorporation of radio labelled tritium thymidine and subsequent radio detection.
as §2, §3

For the molecule `CC(C)(CNC(=O)CC(N)Cc1cc(F)ccc1F)CNC(=O)C(O)C(N)Cc1ccc(-c2ccsc2)cc1` (stereo not drawn) [drawing 280], the pIC50 in experiment [1] was 5.34; in experiment [2], 5.20.

On to `NC(CC(=O)NCCCCNC(=O)C(O)C(N)Cc1ccccc1)Cc1ccccc1` (stereo not drawn) [drawing 229], for which the pIC50 in experiment [1] is 3.70; in experiment [2], at most 3.70.

Turning to `CC(C)(CNCC(N)Cc1cc(F)ccc1F)CNC(=O)C(O)C(N)Cc1ccccc1` (stereo not drawn) [drawing 276], the pIC50 in experiment [1] was 4.51; in experiment [2], 4.52.

For the molecule `CCC(CC)(CNC(=O)CC(N)Cc1ccccc1)CNC(=O)C(O)C(N)Cc1ccccc1` (stereo not drawn) [drawing 228], the results for the pIC50 in experiment [1] and in experiment [2] were 4.31 and 4.83, respectively.

Turning to `NC(CC(=O)NCCNC(=O)C(O)C(N)Cc1ccccc1)Cc1ccccc1` (stereo not drawn) [drawing 220], the pIC50 is 3.91 in experiment [1] and at most 3.70 in experiment [2].

On to `NC(CC(=O)NCC1(CNC(=O)C(O)C(N)Cc2ccccc2)CCC1)Cc1cc(F)ccc1F` (stereo not drawn) [drawing 263], for which the values for the pIC50 in experiment [1] and in experiment [2] were 4.52 and 4.72, respectively.

For `CCCCCCCCCCCCCC(=O)OC(C(=O)NCC(C)(C)CNC(=O)CC(N)Cc1cc(F)ccc1F)C(N)Cc1ccccc1` (stereo not drawn) [drawing 252], the pIC50 in experiment [1] was 5.72; in experiment [2], 5.70.

With `CC(C)(CNC(=O)CC(N)Cc1cc(F)ccc1F)CNC(=O)C(O)C(N)Cc1ccc(-c2cncnc2)cc1` (stereo not drawn) [drawing 283], the pIC50 in experiment [1] was 4.15; in experiment [2], 4.02.

As to `CC(C)(CNC(=O)CC(N)Cc1ccccc1)CNC(=O)CC(O)C(N)Cc1ccccc1` (stereo not drawn) [drawing 230], the pIC50 in experiment [1] was 3.70; in experiment [2] it was at most 3.70.

With `CC(C)(NC(=O)CC(N)Cc1ccccc1)C(C)(C)NC(=O)C(O)C(N)Cc1ccccc1` (stereo not drawn) [drawing 226], the pIC50 in experiment [1] was 4.33; in experiment [2] it was 4.79.

Take `CC(C)(CNC(=O)CC(N)Cc1cc(F)ccc1F)CNC(=O)C1OC(=O)NC1Cc1ccc(-c2ccccc2)cc1` (stereo not drawn) [drawing 275]: the pIC50 is 3.70 in experiment [1] and 3.86 in experiment [2].

`NC(CC(=O)NCCCCNC(=O)C(O)C(N)Cc1ccc(C(=O)O)cc1)Cc1cc(F)ccc1F` (stereo not drawn) [drawing 251]: the results for the pIC50 in experiment [1] and in experiment [2] were 3.89 and 3.95, respectively.

As to `CCCC(=O)OC(C(=O)NCC(C)(C)CNC(=O)CC(N)Cc1cc(F)ccc1F)C(N)Cc1ccccc1` (stereo not drawn) [drawing 260], the pIC50 in experiment [1] is 4.02; in experiment [2], 4.26.

As for `CCCCCCCC(=O)NC(CC(=O)NCC(C)(C)CNC(=O)C(O)C(Cc1ccccc1)NC(=O)CCCCCCC)Cc1cc(F)ccc1F` (stereo not drawn) [drawing 239], the pIC50 in experiment [1] was 4.96; in experiment [2] it was 5.09.

Take `CCCCCCCC(=O)OC(C(=O)NCC(C)(C)CNC(=O)CC(N)Cc1cc(F)ccc1F)C(N)Cc1ccccc1` (stereo not drawn) [drawing 247]: the pIC50 in experiment [1] was 5.24; in experiment [2], 5.13.

Consider `NC(CNC(=O)c1cccc(NC(=O)C(O)C(N)Cc2ccc(-c3ccsc3)cc2)c1)Cc1cc(F)ccc1F` (stereo not drawn) [drawing 284], for which the pIC50 in experiment [1] is 5.33; in experiment [2], 5.41.

For `CCCCCCCCCCCCCCCC(=O)OC(C(=O)NCCCCNC(=O)CC(N)Cc1cc(F)ccc1F)C(N)Cc1ccccc1` (stereo not drawn) [drawing 259], the pIC50 is 5.68 in experiment [1] and 5.39 in experiment [2].

In the case of `CCCCCCCCCCCCCCCC(=O)NC(CC(=O)NCC(C)(C)CNC(=O)C(O)C(Cc1ccccc1)NC(=O)CCCCCCCCCCCCCCC)Cc1cc(F)ccc1F` (stereo not drawn) [drawing 268], the pIC50 is 3.70 in experiment [1] and 4.01 in experiment [2].

Regarding `NC(CC(=O)NCCNC(=O)C(O)C(N)Cc1ccccc1)Cc1cc(F)ccc1F` (stereo not drawn) [drawing 221], the pIC50 in experiment [1] was 3.70; in experiment [2], at most 3.70.

For `NC(CC(=O)NCC1(CNC(=O)C(O)C(N)Cc2ccccc2)CCCC1)Cc1cc(F)ccc1F` (stereo not drawn) [drawing 274], the pIC50 was 4.79 in experiment [1] and 4.89 in experiment [2].

In the case of `CC(C)(CNC(=O)CC(N)Cc1cc(F)ccc1F)CNC(=O)C(O)C(N)Cc1ccc(O)cc1` (stereo not drawn) [drawing 279], the pIC50 in experiment [1] is 4.36; in experiment [2], 4.42.

In the case of `CC(C)(CNC(=O)CC(CN)Cc1ccccc1)CNC(=O)C(O)C(N)Cc1ccccc1` (stereo not drawn) [drawing 240], the pIC50 in experiment [1] was 4.19; in experiment [2], 4.22.

For `NC(CC(=O)NCCCCNC(=O)C(O)C(N)Cc1ccccc1)C(=O)N1CCSC1` (stereo not drawn) [drawing 248], the pIC50 in experiment [1] was 4.55; in experiment [2] it was 4.45.

For the molecule `CN(CCCNC(=O)C(O)C(N)Cc1ccccc1)C(=O)CC(N)Cc1cc(F)ccc1F` (stereo not drawn) [drawing 243], the results for the pIC50 in experiment [1] and in experiment [2] were 3.80 and at most 3.70, respectively.

Regarding `CCCCCCCCCCCC(=O)OC(C(=O)NCC(C)(C)CNC(=O)CC(N)Cc1cc(F)ccc1F)C(N)Cc1ccccc1` (stereo not drawn) [drawing 253], the pIC50 was 5.77 in experiment [1] and 5.70 in experiment [2].

For `NC(CC(=O)N1CCCN(C(=O)C(O)C(N)Cc2ccccc2)CC1)Cc1cc(F)ccc1F` (stereo not drawn) [drawing 271], the pIC50 in experiment [1] was 3.70; in experiment [2], 4.08.

Regarding `NC(CC(=O)NCCCCNC(=O)C(O)C(N)Cc1ccc(Br)cc1)Cc1cc(F)ccc1F` (stereo not drawn) [drawing 267], the pIC50 is 3.70 in experiment [1] and 4.24 in experiment [2].

With `CC(C)(CNC(=O)CC(N)Cc1cc(F)ccc1F)CNC(=O)C(O)C(N)Cc1ccc(-c2ccccc2)cc1` (stereo not drawn) [drawing 281], the values for the pIC50 in experiment [1] and in experiment [2] were 3.92 and 4.01, respectively.

On to `CCCC(=O)NC(CC(=O)NCC(C)(C)CNC(=O)C(O)C(Cc1ccccc1)NC(=O)CCC)Cc1cc(F)ccc1F` (stereo not drawn) [drawing 244], for which the pIC50 is 4.26 in experiment [1] and 4.27 in experiment [2].

`NC(CC(=O)NCCNC(=O)CC(O)C(N)Cc1ccccc1)Cc1ccccc1` (stereo not drawn) [drawing 224]: the pIC50 in experiment [1] is 3.92; in experiment [2], 3.80.

Regarding `C[C@@H]1CN(C(=O)CC(O)C(N)Cc2ccccc2)C[C@H](C)N1C(=O)CC(N)Cc1ccccc1` (stereo partly drawn) [drawing 225], the pIC50 in experiment [1] was 4.07; in experiment [2], 3.83.

Turning to `NC(CC(=O)NCC1(CNC(=O)C(O)C(N)Cc2ccccc2)CCC1)Cc1ccccc1` (stereo not drawn) [drawing 235], the results for the pIC50 in experiment [1] and in experiment [2] were 3.70 and 3.80, respectively.

As for `CC(C)(CCNC(=O)CC(N)Cc1cc(F)ccc1F)CNC(=O)C(O)C(N)Cc1ccccc1` (stereo not drawn) [drawing 242], the pIC50 in experiment [1] was 4.20; in experiment [2], 3.80.

On to `CC(C)(CNC(=O)CC(N)Cc1cc(F)ccc1F)CNC(=O)C(O)C(N)Cc1ccc(-c2cccnc2)cc1` (stereo not drawn) [drawing 282], for which the pIC50 in experiment [1] is 4.50; in experiment [2], 4.19.

As to `NC(CC(=O)NC(CCCNC(=O)C(O)C(N)Cc1ccccc1)C(=O)O)Cc1cc(F)ccc1F` (stereo not drawn) [drawing 241], the negative-log IC50 (pIC50) was 4.15 in experiment [1] and 3.95 in experiment [2].

`NC(CNC(=O)c1cccc(NC(=O)C(O)C(N)Cc2ccc(-c3cccnc3)cc2)c1)Cc1cc(F)ccc1F` (stereo not drawn) [drawing 285]: the pIC50 was 4.42 in experiment [1] and 4.61 in experiment [2].

`NC(CC(=O)NC1CCCC(NC(=O)C(O)C(N)Cc2ccccc2)C1)Cc1cc(F)ccc1F` (stereo not drawn) [drawing 269]: the figures for the pIC50 in experiment [1] and in experiment [2] were 3.70 and 3.95, respectively.

Take `NC(CC(=O)Nc1ccc(NC(=O)C(O)C(N)Cc2ccccc2)cc1)Cc1cc(F)ccc1F` (stereo not drawn) [drawing 245]: the pIC50 is 4.83 in experiment [1] and 4.84 in experiment [2].

`NC(CNC(=O)c1cccc(NC(=O)C(O)C(N)Cc2ccccc2)c1)Cc1cc(F)ccc1F` (stereo not drawn) [drawing 277]: the pIC50 was 4.57 in experiment [1] and 4.67 in experiment [2].
